In DBAASP:
Values after ≈ are worked out from the molar mass of the structure shown.

Tests used:
Assay in all cases: ≥ marks a high value that may be exact or a test limit, other limits are often not marked, values filed in µg/mL are converted to µM
Trypanosoma cruzi = system: Trypanosoma cruzi
[1] = system: Candida albicans ATCC 2002
Escherichia coli 23A = system: Escherichia coli 23A
Escherichia coli 27A = system: Escherichia coli 27A
[2] = system: Escherichia coli ATCC 25922
[3] = system: Pseudomonas aeruginosa 3A
[4] = system: Pseudomonas aeruginosa 7A
[5] = system: Staphylococcus aureus 15A
Staphylococcus aureus 6A = system: Staphylococcus aureus 6A
[6] = system: Staphylococcus aureus ATCC 2592
Acinetobacter sp. = system: Acinetobacter sp.
[7] = system: Escherichia coli NCTC 10418
[8] = system: Escherichia coli NCTC 8007
Klebsiella aerogenes = system: Klebsiella aerogenes
Klebsiella sp. = system: Klebsiella sp.
Proteus mirabilis = system: Proteus mirabilis
Providencia stuartii = system: Providencia stuartii
[9] = system: Staphylococcus aureus NCTC 10571
[10] = system: Acinetobacter baumannii ATCC 19606
[11] = system: Candida albicans ATCC 90028
[12] = system: Cryptococcus neoformans var. grubii H99
Escherichia coli K-12 = system: Escherichia coli K-12
[13] = system: Klebsiella pneumoniae ATCC 700603
[14] = system: Pseudomonas aeruginosa ATCC 27853
[15] = system: Staphylococcus aureus ATCC 43300
[16] = system: Staphylococcus aureus JE2
Citrobacter koseri = system: Citrobacter koseri
Escherichia coli BL21 = system: Escherichia coli BL21
Escherichia coli INV-a = system: Escherichia coli INV-a
Escherichia coli JM109 = system: Escherichia coli JM109
[17] = system: Klebsiella pneumoniae CCRC 10694
[18] = system: Lactococcus lactis MG1363
Pseudomonas aeruginosa = system: Pseudomonas aeruginosa
Salmonella enterica = system: Salmonella enterica
[19] = system: Salmonella typhimurium CCRC 12947
[20] = system: Staphylococcus aureus CCRC 12652
[21] = system: Staphylococcus aureus CCRC 15211
Staphylococcus xylosus = system: Staphylococcus xylosus
[22] = system: Streptococcus alactolyticus
[23] = system: Vibrio parahaemolyticus CCRC 10806
Aspergillus fumigatus = system: Aspergillus fumigatus
Bibersteinia trehalosi = system: Bibersteinia trehalosi
[24] = system: Corynebacterium pseudotuberculosis ATCC 19410
Klebsiella pneumoniae = system: Klebsiella pneumoniae
[25] = system: Mannheimia haemolytica Serovar 1
[26] = system: Mannheimia haemolytica Serovar 2
[27] = system: Mannheimia haemolytica Serovar 6
Pasteurella multocida = system: Pasteurella multocida
[28] = system: Pseudomonas aeruginosa PAO1
[29] = system: Salmonella enterica subsp. arizonae
Staphylococcus aureus = system: Staphylococcus aureus

SMILES: CC[C@H](C)[C@H](NC(=O)[C@H](C)NC(=O)[C@H](CO)NC(=O)[C@@H](NC(=O)[C@H](C)NC(=O)[C@H](CC(N)=O)NC(=O)[C@@H](NC(=O)[C@H](C)NC(=O)[C@H](Cc1cnc[nH]1)NC(=O)[C@@H]1CCCN1C(=O)[C@@H](NC(=O)[C@H](CC(C)C)NC(=O)[C@H](CO)NC(=O)[C@H](CC(C)C)NC(=O)[C@@H](N)Cc1ccccc1)[C@@H](C)CC)[C@@H](C)CC)C(C)C)C(=O)N[C@@H](C)C(=O)N[C@@H](CCCCN)C(=O)N[C@@H](Cc1cnc[nH]1)C(=O)N[C@@H](CO)C(N)=O [FLSLIPHAINAVSAIAKHS]
- MIC (Trypanosoma cruzi): 15.1 µM (≈ 30 µg/mL)

SMILES: CC[C@H](C)[C@H](NC(=O)[C@@H](NC(=O)[C@@H]1CCCN1C(=O)[C@H](CCSC)NC(=O)[C@@H](N)Cc1ccccc1)[C@@H](C)CC)C(=O)NCC(=O)N[C@@H](CCCN=C(N)N)C(=O)N[C@@H](CC(C)C)C(=O)N[C@@H](CCSC)C(=O)N[C@@H](CO)C(=O)NCC(=O)N[C@@H](CO)C(=O)N[C@@H](CC(C)C)C(=O)O [FMPIIGRLMSGSL]
- MIC [1]: 21.1 µM (≈ 30 µg/mL)
- MIC (Escherichia coli 23A): 5.28 µM (≈ 7.5 µg/mL)
- MIC (Escherichia coli 27A): 10.6 µM (≈ 15 µg/mL)
- MIC [2]: 5.28 µM (≈ 7.5 µg/mL)
- MIC [3]: 2.64 µM (≈ 3.75 µg/mL)
- MIC [4]: 2.64 µM (≈ 3.75 µg/mL)
- MIC [5]: 0.703 µM (≈ 1 µg/mL)
- MIC (Staphylococcus aureus 6A): 2.64 µM (≈ 3.75 µg/mL)
- MIC [6]: 1.34 µM (≈ 1.9 µg/mL)

SMILES: CSCC[C@H](NC(=O)[C@H](CC(N)=O)NC(=O)[C@H](CCCN=C(N)N)NC(=O)[C@H](CCC(N)=O)NC(=O)[C@H](Cc1c[nH]c2ccccc12)NC(=O)[C@H](CCC(N)=O)NC(=O)[C@@H](N)Cc1ccccc1)C(=O)N[C@@H](CCCN=C(N)N)C(=O)N[C@@H](CCCCN)C(=O)N[C@H](C(=O)N[C@@H](CCCN=C(N)N)C(=O)NCC(=O)N1CCC[C@H]1C(=O)N1CCC[C@H]1C(=O)N[C@H](C(=O)N[C@@H](CO)C(=O)O)C(C)C)C(C)C [FQWQRNMRKVRGPPVS]
- MIC (Acinetobacter sp.): 2 µM (≈ 3.97 µg/mL)
- MIC [7]: ≥ 500 µM
- MIC [8]: ≥ 500 µM
- MIC (Klebsiella aerogenes): ≥ 1000 µM
- MIC (Klebsiella sp.): ≥ 1000 µM
- MIC (Proteus mirabilis): ≥ 1000 µM
- MIC (Providencia stuartii): ≥ 1000 µM
- MIC [9]: ≥ 500 µM

SMILES: CC[C@H](C)[C@H](NC(=O)[C@@H](NC(=O)[C@H](CO)NC(=O)[C@H](C)NC(=O)[C@@H](NC(=O)[C@H](CCCCN)NC(=O)[C@H](CCCCN)NC(=O)[C@@H](NC(=O)[C@@H](NC(=O)[C@H](CCC(=O)O)NC(=O)[C@H](Cc1ccccc1)NC(=O)[C@H](CC(C)C)NC(=O)CN)C(C)C)[C@@H](C)CC)C(C)C)C(C)C)C(=O)NCC(=O)NCC(=O)N[C@@H](CC(C)C)C(=O)O [GLFEVIKKVASVIGGL]
- MIC [10]: > 19.6 µM
- MIC [11]: 19.6 µM (≈ 32 µg/mL)
- MIC [12]: 9.82 µM (≈ 16 µg/mL)
- MIC [2]: > 19.6 µM
- MIC (Escherichia coli K-12): 19.6 µM (≈ 32 µg/mL)
- MIC [13]: > 19.6 µM
- MIC [14]: > 19.6 µM
- MIC [15]: 19.6 µM (≈ 32 µg/mL)
- MIC [16]: ≥ 39.3 µM

SMILES: CC[C@H](C)[C@H](N)C(=O)N[C@@H](CC(N)=O)C(=O)N[C@@H](Cc1c[nH]c2ccccc12)C(=O)N[C@@H](CCCCN)C(=O)NCC(=O)N[C@H](C(=O)N[C@@H](C)C(=O)N[C@@H](C)C(=O)N[C@@H](CCSC)C(=O)N[C@@H](C)C(=O)N[C@@H](CCCCN)C(=O)N[C@@H](CCCCN)C(=O)N[C@@H](CC(C)C)C(=O)N[C@@H](CC(C)C)C(N)=O)[C@@H](C)CC [INWKGIAAMAKKLL]
- MIC [1]: 2.38 µM (≈ 3.7 µg/mL)
- MIC (Citrobacter koseri): 2.57 µM (≈ 4 µg/mL)
- MIC [2]: 4.82 µM (≈ 7.5 µg/mL)
- MIC (Escherichia coli BL21): 5.14 µM (≈ 8 µg/mL)
- MIC (Escherichia coli INV-a): 8 µM (≈ 12.4 µg/mL)
- MIC (Escherichia coli JM109): 5.14 µM (≈ 8 µg/mL)
- MIC [17]: ≥ 41.1 µM
- MIC [18]: 2.5 µM (≈ 3.89 µg/mL)
- MIC (Pseudomonas aeruginosa): 164 µM (≈ 256 µg/mL)
- MIC (Salmonella enterica): 20.6 µM (≈ 32 µg/mL)
- MIC [19]: 20.6 µM (≈ 32 µg/mL)
- MIC [6]: 2.38 µM (≈ 3.7 µg/mL)
- MIC [20]: 20.6 µM (≈ 32 µg/mL)
- MIC [21]: ≥ 41.1 µM
- MIC (Staphylococcus xylosus): 1.93 µM (≈ 3 µg/mL)
- MIC [22]: 10.3 µM (≈ 16 µg/mL)
- MIC [23]: 20.6 µM (≈ 32 µg/mL)

SMILES: CC[C@H](C)[C@H](NC(=O)[C@H](Cc1cnc[nH]1)NC(=O)[C@@H](NC(=O)[C@@H](NC(=O)[C@H](CCCCN)NC(=O)[C@H](CCCN=C(N)N)NC(=O)[C@@H](NC(=O)[C@@H](NC(=O)[C@H](CCCN=C(N)N)NC(=O)[C@@H](N)CCCN=C(N)N)[C@@H](C)CC)[C@@H](C)CC)[C@@H](C)CC)[C@@H](C)CC)C(=O)N[C@H](C(=O)N[C@@H](CCCCN)C(=O)N[C@@H](CCCCN)C(N)=O)[C@@H](C)CC [RRIIRKIIHIIKK]
- MIC (Aspergillus fumigatus): 3.44 µM (≈ 5.8 µg/mL)
- MIC (Bibersteinia trehalosi): 11.9 µM (≈ 20 µg/mL)
- MIC [24]: 11.9 µM (≈ 20 µg/mL)
- MIC (Klebsiella pneumoniae): > 11.9 µM
- MIC [25]: 4.92 µM (≈ 8.3 µg/mL)
- MIC [26]: 2.73 µM (≈ 4.6 µg/mL)
- MIC [27]: 2.49 µM (≈ 4.2 µg/mL)
- MIC (Pasteurella multocida): 11.9 µM (≈ 20 µg/mL)
- MIC [28]: 0.356 µM (≈ 0.6 µg/mL)
- MIC [29]: 11.9 µM (≈ 20 µg/mL)
- MIC (Staphylococcus aureus): > 11.9 µM
